# Laboratory results: the supplement of paper PMC10307832
# Columns and labels:
# Experiment in all cases: relative viability (nuclei count vs DMSO), 5 days (fraction); higher = more cells survive
# [1] = compound: C1/C(=C\C2=CC=CS2)/C(=O)/C(=C/C3=CC=CS3)/C1 + O=C(CCCCCCC(=O)Nc1ccccc1)NO [Vorinostat] (partner 1 µM)
# Method in brief: (§1)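 Five library-drug doses in √10 steps were combined with a fixed anchor-drug dose, or a single drug was given alone, by pin tool to lung cancer cell lines in 1536-well plates the day after seeding. Nuclei were stained and counted after 5 days. Relative viability is the nuclei count in treated wells over that in vehicle wells, taken as the median of duplicate plates.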
# [2] = compound: C[C@]12O[C@H](C[C@]1(O)CO)n1c3ccccc3c3c4c(c5c6ccccc6n2c5c31)CNC4=O [Lestaurtinib] + C[C@@H](Oc1cc(-c2cnn(C3CCNCC3)c2)cnc1N)c1c(Cl)ccc(F)c1Cl [Crizotinib] (partner 1 µM)
# Method in brief: as §1
# TPCA-1 + Vorinostat = compound: C1=CC(=CC=C1C2=CC(=C(S2)NC(=O)N)C(=O)N)F [TPCA-1] + O=C(CCCCCCC(=O)Nc1ccccc1)NO [Vorinostat] (partner 1 µM)
# Method in brief: as §1
# [3] = compound: C1/C(=C\C2=CC=CS2)/C(=O)/C(=C/C3=CC=CS3)/C1 + Nc1nc2[nH]cc(CCc3ccc(C(=O)N[C@@H](CCC(=O)O)C(=O)O)cc3)c2c(=O)[nH]1 [Pemetrexed] (partner 0.2 µM)
# Method in brief: as §1
cell line,measurement,setting,value
UMC-11,relative viability,[1]; first compound 0.2 µM,0.361
same,relative viability,[1]; first compound 0.6325 µM,0.36
same,relative viability,[1]; first compound 2 µM,0.43
same,relative viability,[1]; first compound 6.325 µM,0.26
same,relative viability,[1]; first compound 20 µM,0.394
same,relative viability,[2]; first compound 0.005 µM,0.5
same,relative viability,[2]; first compound 0.01581 µM,0.6
same,relative viability,[2]; first compound 0.05 µM,0.416
same,relative viability,[2]; first compound 0.1581 µM,0.248
same,relative viability,[2]; first compound 0.5 µM,0.107
same,relative viability,TPCA-1 + Vorinostat; first compound 0.04 µM,0.447
same,relative viability,TPCA-1 + Vorinostat; first compound 0.1265 µM,0.358
same,relative viability,TPCA-1 + Vorinostat; first compound 0.4 µM,0.368
same,relative viability,TPCA-1 + Vorinostat; first compound 1.265 µM,0.378
same,relative viability,TPCA-1 + Vorinostat; first compound 4 µM,0.214
same,relative viability,[3]; first compound 0.2 µM,0.816
same,relative viability,[3]; first compound 0.6325 µM,0.817
same,relative viability,[3]; first compound 2 µM,0.789
same,relative viability,[3]; first compound 6.325 µM,0.563
same,relative viability,[3]; first compound 20 µM,0.824
